Results as given in patent publication US20040220297A1, “Self curing cements” (priority 1999, published 2004).

Assay: Cytotoxicity tests
Type: cell-based

CCCCCCCC/C=C\CCCCCCCC(=O)OCc1ccc(N(C)C)cc1 [DMAO, 4-N,N-dimethylaminobenzyloleate]
cytotoxicity: non-toxic
